Patent US12180192B2, “Modulators of THR-β and methods of use thereof” (ALIGOS THERAPEUTICS, INC., priority 2019, dated 2024)

How the values were obtained:
[1] = target: T1, human thyroid receptor alpha ligand-binding domain (LBD) (Homo sapiens, UniProt P10827); assay: TR-FRET thyroid receptor alpha coactivator assay (THR biochemical assay, Assay 1); settings: for EC50: Table 4, THR-alpha, read-out: Activity category Assay 1 (EC50, THR-alpha agonist activity); for Emax: Table 5, THRα, read-out: Activity category Assay 1 THRα (Emax)
T1 construct: purchased Invitrogen
In short: (§1)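 Agonist-driven coactivator recruitment measured by TR-FRET: terbium anti-GST antibody (2 nM) bound to GST-LBD of TRβ or TRα (1 nM final, stated for β), with fluorescein SRC2-2 peptide at 200 nM. Compounds at 1% DMSO. Read after 1 h, room temperature, protected from light.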

[2] = target: T2, human thyroid receptor beta ligand-binding domain (LBD) (Homo sapiens, UniProt P10828); assay: TR-FRET thyroid receptor beta coactivator assay (THR biochemical assay, Assay 1); settings: for EC50: THR-beta, TR-FRET coactivator assay, read-out: Activity category Assay 1 (EC50, THR-beta agonist); for Emax: Table 5, Assay 1, THRβ, read-out: Activity category Assay 1 THRβ (Emax)
T2 construct: purchased Invitrogen
T2 sequence (P10828 217-461 limits assumed): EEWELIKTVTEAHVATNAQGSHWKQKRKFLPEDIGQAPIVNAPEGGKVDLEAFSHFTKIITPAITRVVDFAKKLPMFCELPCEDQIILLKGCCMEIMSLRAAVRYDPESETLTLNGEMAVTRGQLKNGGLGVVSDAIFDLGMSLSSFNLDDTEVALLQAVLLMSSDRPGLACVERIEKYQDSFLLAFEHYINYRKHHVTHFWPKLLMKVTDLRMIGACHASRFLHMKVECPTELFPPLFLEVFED
In short: as §1

THR beta = target: T3, THR beta (Homo sapiens, UniProt P10828); assay: HEK293T THR beta/RXR luciferase reporter assay (Assay 2); assay type: cell-based; settings: for Emax: HEK-293T, Table 5, Assay 2, THRβ, read-out: Activity category Assay 2 THRβ (Emax); for EC50: THR-beta, HEK293T reporter assay, read-out: Activity category Assay 2 (EC50, THR-beta agonist)
T3 construct: expressed in transfected cells; host or cells: HEK293T (ATCC CRL-3216)
T3 sequence (P10828 1-461): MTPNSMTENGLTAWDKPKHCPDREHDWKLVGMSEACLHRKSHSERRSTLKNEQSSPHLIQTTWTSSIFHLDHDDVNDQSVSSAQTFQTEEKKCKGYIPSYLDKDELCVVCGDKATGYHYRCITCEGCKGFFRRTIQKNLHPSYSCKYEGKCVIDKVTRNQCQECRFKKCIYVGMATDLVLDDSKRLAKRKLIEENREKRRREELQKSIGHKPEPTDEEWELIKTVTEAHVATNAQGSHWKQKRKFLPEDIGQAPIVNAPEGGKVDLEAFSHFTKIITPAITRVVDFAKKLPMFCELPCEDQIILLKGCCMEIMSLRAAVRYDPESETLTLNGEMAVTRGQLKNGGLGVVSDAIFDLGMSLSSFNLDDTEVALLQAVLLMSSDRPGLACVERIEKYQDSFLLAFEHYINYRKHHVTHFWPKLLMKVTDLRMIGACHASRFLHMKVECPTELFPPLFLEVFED
T3 sequence (P19793 1-462 partner): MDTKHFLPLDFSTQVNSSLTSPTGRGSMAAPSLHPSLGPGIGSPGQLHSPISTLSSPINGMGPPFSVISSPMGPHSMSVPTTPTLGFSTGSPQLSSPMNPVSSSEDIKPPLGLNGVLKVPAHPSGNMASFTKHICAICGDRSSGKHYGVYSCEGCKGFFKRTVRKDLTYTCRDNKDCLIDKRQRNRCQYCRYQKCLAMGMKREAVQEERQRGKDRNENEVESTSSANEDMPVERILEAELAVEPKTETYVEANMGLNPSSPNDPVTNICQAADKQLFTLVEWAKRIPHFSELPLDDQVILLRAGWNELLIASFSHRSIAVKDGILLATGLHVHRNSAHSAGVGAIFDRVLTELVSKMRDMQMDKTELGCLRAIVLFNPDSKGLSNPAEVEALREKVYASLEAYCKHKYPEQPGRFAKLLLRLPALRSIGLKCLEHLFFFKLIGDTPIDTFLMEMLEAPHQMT
In short: (§2)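 Compounds tested as ten-point five-fold dilution series for 18-24 h on transiently transfected HEK293T cells carrying TRE-driven luciferase plus RXR and either THR alpha or beta expression plasmids. Read-out by One-Glo luminescence, expressed as percent agonism relative to negative and positive controls.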

THR alpha = target: T4, THR alpha (Homo sapiens, UniProt P10827); assay: HEK293T THR alpha/RXR luciferase reporter assay (Assay 2); assay type: cell-based; settings: Assay 2; for Emax: HEK-293T, Table 5, THRα, read-out: Activity category Assay 2 THRα (Emax); for EC50: Table 4, THR-alpha, read-out: Activity category Assay 2 (EC50, THR-alpha agonist activity)
T4 construct: expressed in transfected cells; host or cells: HEK293T (ATCC CRL-3216)
T4 sequence (P10827 1-410 isoform P10827-2): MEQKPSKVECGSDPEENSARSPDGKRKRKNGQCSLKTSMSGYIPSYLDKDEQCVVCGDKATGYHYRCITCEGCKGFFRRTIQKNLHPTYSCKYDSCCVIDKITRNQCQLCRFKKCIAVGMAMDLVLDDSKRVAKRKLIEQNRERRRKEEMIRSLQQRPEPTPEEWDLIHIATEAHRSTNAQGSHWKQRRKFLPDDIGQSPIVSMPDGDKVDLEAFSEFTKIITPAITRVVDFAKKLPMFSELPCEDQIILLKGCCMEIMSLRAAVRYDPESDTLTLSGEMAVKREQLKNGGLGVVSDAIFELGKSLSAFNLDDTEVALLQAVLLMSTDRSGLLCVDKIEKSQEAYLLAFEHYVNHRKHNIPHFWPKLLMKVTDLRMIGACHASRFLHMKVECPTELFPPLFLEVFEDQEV
T4 sequence (P19793 1-462 partner): T3 sequence (P19793 1-462 partner)
In short: as §2

SMILES | EC50 [1] [nM] | Emax [1] [%] | EC50 [2] [nM] | Emax [2] [%] | Emax (THR beta) [%] | EC50 (THR beta) [nM] | Emax (THR alpha) [%] | EC50 (THR alpha) [nM]
Nc1nn(-c2cc(Cl)c(Oc3cc(C(O)C4CCCC4)c(=O)[nH]n3)c(Cl)c2)c(=O)[nH]c1=O (centres unmarked) [Compound 77, 6-amino-2-[3,5-dichloro-4-([5-[cyclopentyl(hydroxy)methyl]-6-oxo-1H-pyridazin-3-yl]oxy)phenyl]-4H-1,2,4-triazine-3,5-dione] | 250 to 1000 | 50 to 75 | 50 to 250 | < 50 | > 75 | 50 to 250 | > 75 | 250 to 1000
CC(C)c1cc(Oc2c(Cl)cc(-n3nc(N)c(=O)[nH]c3=O)c3c2CC3)n[nH]c1=O [Compound 79, 6-Amino-2-[4-chloro-5-[(5-isopropyl-6-oxo-1H-pyridazin-3-yl)oxy]-bicyclo[4.2.0]octa-1(6),2,4-trien-2-yl]-4H-1,2,4-triazine-3,5-dione] | 1000 to 25000 | < 50 | 1000 to 25000 | 50 to 75 | > 75 | > 10000 | 50 to 75 | 1000 to 10000
CC(C)c1cc(Oc2c(Cl)cc(-n3nc(N)c(=O)[nH]c3=O)cc2Br)n[nH]c1=O [Compound 80, 6-Amino-2-(3-bromo-5-chloro-4-((5-isopropyl-6-oxo-1,6-dihydropyridazin-3-yl)oxy)phenyl)-1,2,4-triazine-3,5(2H,4H)-dione] | 50 to 250 | 50 to 75 | < 50 | 50 to 75 | > 75 | < 50 | > 75 | 50 to 250
CC(C)c1cc(Oc2c(Br)cc(-n3nc(N)c(=O)[nH]c3=O)cc2Br)n[nH]c1=O [Compound 81, 6-Amino-2-(3,5-dibromo-4-((5-isopropyl-6-oxo-1,6-dihydropyridazin-3-yl)oxy)phenyl)-1,2,4-triazine-3,5(2H,4H)-dione] | < 50 | 50 to 75 | < 50 | 50 to 75 | > 75 | < 50 | > 75 | < 50
CC1(C)C(=O)Nc2ccc(Oc3c(Cl)cc(-n4nc(N)c(=O)[nH]c4=O)cc3Cl)cc21 [Compound 82, 6-amino-2-[3,5-dichloro-4-[(3,3-dimethyl-2-oxo-1H-indol-5-yl)oxy]phenyl]-4H-1,2,4-triazine-3,5-dione] | < 50 | > 75 | < 50 | > 75 | > 75 | < 50 | > 75 | < 50
CC(C)C1(C)C(=O)Nc2ccc(Oc3c(Cl)cc(-n4nc(N)c(=O)[nH]c4=O)cc3Cl)cc21 (centres unmarked) [Compound 84, 6-amino-2-[3,5-dichloro-4-[(3-isopropyl-3-methyl-2-oxo-1H-indol-5-yl)oxy]phenyl]-4H-1,2,4-triazine-3,5-dione] | < 50 | 50 to 75 | < 50 | < 50 | > 75 | 50 to 250 | > 75 | 50 to 250
Nc1nn(-c2cc(Cl)c(Oc3ccc4c(c3)C3(CCCCC3)C(=O)N4)c(Cl)c2)c(=O)[nH]c1=O [Compound 85] | < 50 | < 50 | < 50 | < 50 | > 75 | – | 50 to 75 | < 50
Nc1nn(-c2cc(Cl)c(Oc3cc([C@H]4C[C@H](O)C4)c(=O)[nH]n3)c(Cl)c2)c(=O)[nH]c1=O [Compound 88-A, 6-Amino-2-[3,5-dichloro-4-([6-oxo-5-[(1r,3r)-3-hydroxycyclobutyl]-1H-pyridazin-3-yl]oxy)phenyl]-4H-1,2,4-triazine-3,5-dione] | > 25000 | < 50 | 1000 to 25000 | < 50 | < 50 | > 10000 | > 75 | > 10000

Continued, values first:

EC50 [1] [nM] | Emax [1] [%] | EC50 [2] [nM] | Emax [2] [%] | Emax (THR beta) [%] | EC50 (THR beta) [nM] | Emax (THR alpha) [%] | EC50 (THR alpha) [nM] | SMILES
1000 to 25000 | 50 to 75 | < 50 | < 50 | 50 to 75 | 50 to 250 | < 50 | > 10000 | O=c1cnn(-c2cc(Cl)c(Oc3cc(-c4ccc5c(c4)CCCC5)c(=O)[nH]n3)c(Cl)c2)c(=O)[nH]1 [Compound 91, 2-(3,5-dichloro-4-((6-oxo-5-(5,6,7,8-tetrahydronaphthalen-2-yl)-1,6-dihydropyridazin-3-yl)oxy)phenyl)-1,2,4-triazine-3,5(2H,4H)-dione]
1000 to 25000 | < 50 | < 50 | < 50 | 50 to 75 | 50 to 250 | < 50 | > 10000 | O=c1cc(-c2ccc3c(c2)CCCC3)c(Oc2c(Cl)cc(-n3ncc(=O)[nH]c3=O)cc2Cl)n[nH]1 [Compound 91-A, 2-(3,5-dichloro-4-((6-oxo-4-(5,6,7,8-tetrahydronaphthalen-2-yl)-1,6-dihydropyridazin-3-yl)oxy)phenyl)-1,2,4-triazine-3,5(2H,4H)-dione]
1000 to 25000 | 50 to 75 | < 50 | < 50 | < 50 | 250 to 1000 | < 50 | > 10000 | O=c1cc(-c2ccc3ccccc3c2)c(Oc2c(Cl)cc(-n3ncc(=O)[nH]c3=O)cc2Cl)n[nH]1 [Compound 92-A]
1000 to 25000 | < 50 | 50 to 250 | < 50 | < 50 | 50 to 250 | < 50 | > 10000 | O=c1cnn(-c2cc(Cl)c(Oc3cc(-c4ccc5ccccc5c4)c(=O)[nH]n3)c(Cl)c2)c(=O)[nH]1 [Compound 92]
250 to 1000 | < 50 | 50 to 250 | < 50 | > 75 | 50 to 250 | < 50 | 250 to 1000 | Nc1nn(-c2cc(Cl)c(Oc3cc(C45CC(C4)C5)c(=O)[nH]n3)c(Cl)c2)c(=O)[nH]c1=O [Compound 95]
1000 to 25000 | < 50 | 250 to 1000 | < 50 | < 50 | 1000 to 10000 | < 50 | > 10000 | Nc1nn(-c2cc(Cl)c(Oc3cc(C4CCC(F)(F)CC4)c(=O)[nH]n3)c(Cl)c2)c(=O)[nH]c1=O [Compound 97]
> 25000 | < 50 | 50 to 250 | < 50 | < 50 | 50 to 250 | < 50 | > 10000 | Nc1nn(-c2cc(Cl)c(Oc3cc(C4CCc5ccccc5C4)c(=O)[nH]n3)c(Cl)c2)c(=O)[nH]c1=O (centres unmarked) [Compound 98]
